Experimental data as given in PMC8964423 (Frontiers in Chemistry, 2022).

Key:
[1] = system: Caski; assay: Cell viability assay, CaSki; type: cell-based, human; conditions: cervical cancer; treated 2 days; mean ± SD (n = 3)
Method: (§1) HeLa (ATCC; CCL-2) and CaSki (ATCC; CRL-1550) were cultured in Roswell Park Memorial Institute (RPMI) 1,640 Medium (Gibco; #11875-093) supplemented with heat-inactivated 10% fetal bovine serum (FBS) (Gibco; #16000-044), and 1% penicillin (100 units/mL)/streptomycin (100 μg/mL) solution (Gibco; #15240-062). A375P (ATCC; CRL-3224), HEK293T (ATCC; […] CRL-2541) were cultured in Dulbecco's Modified Eagle's Medium (DMEM) (Gibco; #11995-065) supplemented with heat-inactivated 10% FBS (Gibco; #16000-044), and 1% penicillin/streptomycin solution (Gibco; #15240-062). All types of cells were maintained in 100-mm cell culture dishes in a humidified atmosphere of a 5% CO2 incubator at 37°C. All cells were cultured every 2 days using trypsin (Gibco; #12605-010). […] BF-400-S). […] […]), carboplatin (Sigma; […] After changing the culture medium to 100 μL of fresh culture medium, 10 μL of Ez-cytox solution (Dogen; EZ-BULK150) was added to the 96-well plate. […] Synergy).

[2] = system: HEK293T; assay: Cell viability assay, HEK293T; type: cell-based, human; conditions: embryonic kidney cells (non-cancer); treated 2 days; mean ± SD (n = 3)
Method: as §1

[3] = system: A375P; assay: Cell viability assay, A375P; type: cell-based, human; conditions: skin melanoma; treated 2 days; mean ± SD (n = 3)
Method: as §1

[4] = system: HeLa; assay: Cell viability assay (Ez-cytox; Table 1 says MTT), HeLa; type: cell-based, human; conditions: cervical cancer; treated 2 days; mean ± SD (n = 3)
Method: as §1

[5] = system: C8-D1A; assay: Cell viability assay, C8-D1A; type: cell-based, murine; conditions: normal astrocyte; treated 2 days; mean ± SD (n = 3)
Method: as §1

[6] = system: HeLa cells; assay: ICP-MS metal accumulation in DNA and proteins of HeLa cells; type: cell-based, human; conditions: 10 μM, 1, 2, 4 and 8 h
Method: After washing with 1× phospho-buffered saline (PBS, Welgene; ML008-02), HeLa cells harvested by trypsinization (Gibco; #12605-010) were used for either protein or DNA extraction. […] The concentration of the soluble protein fraction was measured by BCA (bicinchoninic acid) protein assay kit (Thermo; #23225). Cell lysates were digested in concentrated HNO3 at 160°C for 3 h and rested at room temperature overnight. The digested cell lysates were diluted in DW to make the final concentration of HNO3 less than 5%. […] The metal accumulations in proteins were expressed as ng Pt or Re/mg protein. In order to quantify metal accumulations in DNA, cells were re-suspended in 300 μL of lysis buffer [100 mM NaCl, 25 mM EDTA (Acros; #11843-5000), 0.5% SDS (w/v) (Acros; #230420100), 0.1 mg/ml proteinase K (Merck; #70663-4CN), and 10 mM Tris-HCl, pH 8.0] and incubated at 50°C overnight. A 300 μL of phenol:chloroform:isoamyl alcohol mixture (25:24:1, Sigma; #77617) was added to cell lysates and shaken vigorously. After centrifugation at 13,000 g for 5 min, upper layer containing DNA, out of two layers, was transferred to a new tube. […] DNA concentration was quantified by measuring the absorbance at 260 nm. […] Metal contents in DNA were quantified by ICP-MS as same method as measuring metal contents in protein. The metal accumulations in DNA were expressed as ng Pt or Re/mg DNA.

[7] = system: HeLa cells; assay: Flow cytometry apoptosis analysis (Annexin V-FITC) in HeLa cells; type: cell-based, human; conditions: 10 μM TRIP or 50 μM etoposide, 24 h
Method: HeLa cells were treated with each compound for the designated time and dose, or transfected with siRNAs using Lipofectamine RNAiMAX (Thermo; #15338100). The cells were trypsinized and re-suspended in PBS containing 2% FBS (Gibco; #16000-044). To measure mitochondrial reactive oxygen species (ROS) and polarization, we stained the same number of re-suspended cells with either 2.5 μM of mitoSOX (Invitrogen; M36008) or 500 nM of TMRE (tetramethylrhodamine ethyl ester) (Invitrogen; T669) at 37°C for 1 h. To measure apoptosis, we also stained the same number of re-suspended cells with Annexin V-FITC Apoptosis Staining and Detection Kit (Abcam; ab14085) according to the manufacturer’s protocol. The stained cells were subjected to flow cytometry analysis using FACSAria II (BD).

[8] = system: HeLa cells; assay: Mitochondrial monitoring in live HeLa cells (mitochondrial fission); conditions: 10 μM TRIP, 50 μM Mdivi-1 pre-treated 1 h
[9] = system: CHOP; assay: Immunoblotting of CHOP signaling pathways in HeLa cells; type: cell-based, human
Method: The concentration of the soluble protein fraction was measured by BCA protein assay kit (Thermo; #23225).

SMILES	IC50 [1] [µM]	IC50 [2] [µM]	IC50 [3] [µM]	IC50 [4] [µM]	IC50 [5] [µM]	other results
N.N.O=C([O-])C1(C(=O)[O-])CCC1.[Pt+2] [Carboplatin, carboplatin]	22.73 ± 0.2	49.6 ± 6.99	23 ± 0.85	40.5 ± 2.62	23.66 ± 0.21	–
N.N.[Cl][Pt][Cl] [Cisplatin, cisplatin]	7.89 ± 0.26	8.33 ± 0.3	8.35 ± 0.37	9.2 ± 0.38	10.2 ± 0.23	metal accumulation in DNA and proteins (Pt for cisplatin, Re for TRIP) [6]: induced the DNA platination in a time-dependent manner
COc1cc([C@@H]2c3cc4c(cc3[C@@H](O[C@@H]3O[C@@H]5CO[C@@H](C)O[C@H]5[C@H](O)[C@H]3O)[C@H]3COC(=O)[C@H]23)OCO4)cc(OC)c1O [Etoposide, etoposide]	–	–	–	–	–	mode of cell death [7]: via apoptosis, not necrosis
COc1cc(-n2c(=S)[nH]c3ccccc3c2=O)c(Cl)cc1Cl [Mdivi-1]	–	–	–	–	–	mitochondrial fission [8]: could be blocked by Mdivi-1 treatment; effect on TRIP-induced CHOP activation ([9]; 50 μM Mdivi-1 co-treatment with TRIP): accelerated TRIP-induced CHOP activation; effect on thapsigargin-induced CHOP activation ([9]; Mdivi-1 co-treatment with thapsigargin): did not boost thapsigargin-induced CHOP activation
C/C=C(/C)C(=O)O[C@H]1C(C)=C2[C@H]([C@@H]1OC(=O)CCCCCCC)[C@@](C)(OC(C)=O)C[C@H](OC(=O)CCC)[C@@]1(O)[C@H]2OC(=O)[C@@]1(C)O [thapsigargin]	–	–	–	–	–	time to activation of p-eIF2α/ATF4 signaling pathway ([9]; 200 nM thapsigargin): ≤ 1 h; time after which CHOP activation was observed ([9]; 200 nM thapsigargin or 10 μM TRIP): 2 h
